According to patent US20240374605A1, “METHODS OF TREATING CANCER” (Foghorn Therapeutics Inc., priority 2021, published 2024):
pIC50: −log10 of the molar value.

How the values were obtained:
BRG1 = molecular target: T1, BRG1 (Homo sapiens, UniProt P51532); test: ATPase catalytic activity of BRG-1, in vitro biochemical assay using ADP-Glo; settings: 30 nM BRG-1, 400 μM ATP, 1 hour room temperature; read-out: IP50 against BRG1
T1 construct: made in house; host or cells: High Five insect cells

[1] = test system: Uveal melanoma cell lines, 92-1 or MP41; test: 3-day growth inhibition compared with clinical PKC and MEK inhibitors (Cell-titer glow); format: cell-based; settings: 0 to 10 μM, 3 days
[2] = test system: Uveal melanoma cell lines (92-1, MP41, MP38, MP46) and non-small cell lung cancer cells (NCIH1299); test: 3-day growth inhibition (Cell-titer glow), Example 12; format: cell-based; settings: 0 to 10 μM, 3 days; FIG. 6
[3] = test system: PKC inhibitor (PKCi)-resistant MP41 uveal melanoma cells; test: 7-day growth inhibition assay, PKC inhibitor-resistant cells; format: cell-based
[4] = test system: uveal melanoma, hematologic cancer, prostate cancer, breast cancer, and Ewing's sarcoma cell lines; settings: breast cancer and Ewing's sarcoma lines vs the other tested cell lines, 0 to 10 μM, FIG. 4
parental MP41 cells = test: 7-day growth inhibition assay, parental cells; settings: parental MP41, 7-day; FIG. 10
[5] = test system: 92-1 uveal melanoma cells; test: Uveal melanoma tumor growth inhibition in vivo, subcutaneous xenograft; set-up: species or system Nude mice
[6] = Body weight and tolerability in tumor-bearing mice; format: in vivo; settings: all treatments, once daily oral gavage, 3 weeks
[7] = test system: uveal melanoma, prostate cancer, acute leukemia and histocytic lymphoma cell lines; test: 3-day growth inhibition (Cell-titer glow), all cell lines of Example 17; format: cell-based
22RV1 = test: 3-day growth inhibition (Cell-titer glow), 22RV1; format: cell-based; settings: Homo sapiens, 72 h; 22RV1, Prostate, 3 days; read-out: Absolute IC50
92-1 = test: 3-day growth inhibition (Cell-titer glow), 92-1; format: cell-based; settings: 72 h; 92-1, Uveal melanoma, 3 days; read-out: Absolute IC50
EOL1 = test: 3-day growth inhibition (Cell-titer glow), EOL1; format: cell-based; settings: Homo sapiens, 72 h; EOL1, Acute myeloid leukemia, 3 days; read-out: Absolute IC50
MEL202 = test: 3-day growth inhibition (Cell-titer glow), MEL202; format: cell-based; settings: 72 h; MEL202, Uveal melanoma, 3 days; read-out: Absolute IC50
MP38 = test: 3-day growth inhibition (Cell-titer glow), MP38; format: cell-based; settings: 72 h; MP38, Uveal melanoma, 3 days; read-out: Absolute IC50
MP41 = test: 3-day growth inhibition (Cell-titer glow), MP41; format: cell-based; settings: 72 h; MP41, Uveal melanoma, 3 days; read-out: Absolute IC50
MP46 = test: 3-day growth inhibition (Cell-titer glow), MP46; format: cell-based; settings: 72 h; MP46, Uveal melanoma, 3 days; read-out: Absolute IC50
THP1 = test: 3-day growth inhibition (Cell-titer glow), THP1; format: cell-based; settings: Homo sapiens, THP-1, 72 h; THP1, Acute monocytic leukemia, 3 days; read-out: Absolute IC50
U937 = test: 3-day growth inhibition (Cell-titer glow), U937; format: cell-based; settings: Homo sapiens, U-937, 72 h; U937, Histiocytic lymphoma, 3 days; read-out: Absolute IC50

T1 sequence (P51532 whole entry): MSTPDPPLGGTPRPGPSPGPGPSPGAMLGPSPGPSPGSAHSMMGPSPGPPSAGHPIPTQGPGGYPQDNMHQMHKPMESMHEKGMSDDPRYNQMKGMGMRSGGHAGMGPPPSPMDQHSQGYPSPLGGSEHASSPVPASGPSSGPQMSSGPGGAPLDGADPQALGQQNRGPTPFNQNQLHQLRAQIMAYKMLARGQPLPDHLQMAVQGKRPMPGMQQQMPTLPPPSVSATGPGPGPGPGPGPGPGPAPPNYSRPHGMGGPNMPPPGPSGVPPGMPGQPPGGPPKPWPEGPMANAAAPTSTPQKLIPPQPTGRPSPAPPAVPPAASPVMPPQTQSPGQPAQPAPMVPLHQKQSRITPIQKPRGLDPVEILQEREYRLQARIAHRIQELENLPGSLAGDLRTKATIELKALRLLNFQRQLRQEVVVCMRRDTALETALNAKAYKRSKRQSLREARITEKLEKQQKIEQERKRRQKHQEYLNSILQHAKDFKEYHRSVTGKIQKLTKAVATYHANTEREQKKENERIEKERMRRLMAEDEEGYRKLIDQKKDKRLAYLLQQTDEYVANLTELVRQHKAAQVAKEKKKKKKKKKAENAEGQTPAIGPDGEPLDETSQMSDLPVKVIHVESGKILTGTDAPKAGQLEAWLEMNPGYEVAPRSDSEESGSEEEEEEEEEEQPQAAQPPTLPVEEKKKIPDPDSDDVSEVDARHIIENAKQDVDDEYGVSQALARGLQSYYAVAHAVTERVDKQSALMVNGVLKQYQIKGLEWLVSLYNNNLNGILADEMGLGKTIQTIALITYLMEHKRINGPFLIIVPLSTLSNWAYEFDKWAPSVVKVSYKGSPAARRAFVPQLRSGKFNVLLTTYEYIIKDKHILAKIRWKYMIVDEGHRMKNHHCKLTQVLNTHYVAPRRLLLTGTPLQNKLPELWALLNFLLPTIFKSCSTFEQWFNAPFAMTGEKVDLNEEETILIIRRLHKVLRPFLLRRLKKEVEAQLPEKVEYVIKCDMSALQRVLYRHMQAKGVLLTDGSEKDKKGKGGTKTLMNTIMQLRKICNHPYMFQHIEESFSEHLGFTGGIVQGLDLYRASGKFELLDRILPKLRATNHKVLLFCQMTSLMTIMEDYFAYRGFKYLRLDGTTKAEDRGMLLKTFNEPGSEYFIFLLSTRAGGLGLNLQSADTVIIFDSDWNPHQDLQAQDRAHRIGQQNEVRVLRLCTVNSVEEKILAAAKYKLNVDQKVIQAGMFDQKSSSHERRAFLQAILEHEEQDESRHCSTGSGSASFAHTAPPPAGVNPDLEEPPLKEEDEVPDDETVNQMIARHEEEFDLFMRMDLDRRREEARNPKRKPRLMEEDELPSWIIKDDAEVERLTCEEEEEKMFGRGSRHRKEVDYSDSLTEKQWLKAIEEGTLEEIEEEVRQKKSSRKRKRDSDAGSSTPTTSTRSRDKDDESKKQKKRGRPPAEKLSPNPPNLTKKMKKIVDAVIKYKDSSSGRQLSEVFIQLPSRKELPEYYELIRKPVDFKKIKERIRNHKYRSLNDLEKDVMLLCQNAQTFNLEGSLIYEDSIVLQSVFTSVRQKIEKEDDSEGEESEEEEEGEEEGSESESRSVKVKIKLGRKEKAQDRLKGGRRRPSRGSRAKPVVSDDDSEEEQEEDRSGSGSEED

For `CSOC[C@H](NC(=O)c1ccc(N)cc1)C(=O)Nc1nc(-c2cccc(-c3ccncc3)c2)cs1` [Compound A], the pIC50 (BRG1) was 7.71, the “growth inhibition compared with the clinical PKC (LXS196) and MEK (Selumetinib) inhibitors” value [1] was “comparable growth inhibition” and the “onset of growth inhibition compared with the clinical PKC and MEK inhibitors” value [1] was “faster onset of inhibition”.

With `CSCC[C@H](NC(=O)c1ccn(S(C)(=O)=O)c1)C(=O)Nc1nc(-c2cccc(-c3ccncc3)c2)cs1` [Compound B] the “growth inhibition compared with the clinical PKC (LXS196) and MEK (Selumetinib) inhibitors” value [1] was “more potent effects on growth inhibition”, the “onset of growth inhibition compared with the clinical PKC and MEK inhibitors” value [1] was “faster onset of growth inhibition” and the growth inhibition [2] was “potent growth inhibition”. The growth inhibition ([3]; PKCi-resistant MP41, 7-day, FIG. 10) was “strong growth inhibition”, the “sensitivity of cell lines to BRG1/BRM inhibition” value [4] was “more sensitive” and the growth inhibition (parental MP41 cells) was “strong growth inhibition”.

For `CC1(N)CCN(c2cccnc2NC(=O)c2nc(-c3ncccc3C(F)(F)F)cnc2N)CC1` [LXS196, reference compound], the “sensitivity of PKCi-resistant cells relative to parental MP41 cells” value ([3]; 7-day, FIG. 9 and FIG. 10) was “could tolerate growth at higher concentrations”.

In the case of `COC[C@H](NC(=O)c1ccn(S(C)(=O)=O)c1)C(=O)Nc1nc(-c2cccc(N3C[C@@H](C)O[C@@H](C)C3)n2)cs1` [N—((S)-1-((4-(6-(cis-2,6-dimethylmorpholino)pyridin-2-yl)thiazol-2-yl)amino)-3-methoxy-1-oxopropan-2-yl)-1-(methylsulfonyl)-1H-pyrrole-3-carboxamide], the “tumor response at the highest dose” value ([5]; […] once daily oral gavage) was “tumor regression”, the tumor growth inhibition ([5]; once daily oral gavage, increasing doses, 3 weeks) was “tumor growth inhibition in a dose-dependent manner” and the tolerability [6] was “well tolerated”. For the same molecule, the pIC50 ([7]; 72 h, 3 days of compound treatment, read-out: absolute IC50 values, all cell lines tested) was > 6.46, the growth inhibition ([7]; 3 days, 0 to 2 μM (uveal melanoma lines) or 0 to 1 μM (other lines), FIG. 14) was “potent growth inhibition” and the pIC50 (22RV1) was 7.53. For the same molecule, the pIC50 (92-1) was 9.52, the pIC50 (EOL1) was 7.12 and the pIC50 (MEL202) was 7.21. For the same molecule, the pIC50 (MP38) was 7.50, the pIC50 (MP41) was 7.93 and the pIC50 (MP46) was 6.95. It also gave a pIC50 (THP1) of 6.46 and a pIC50 (U937) of 7.83.
